Assay results from PMC11855827, “High-Throughput Screening of Five Compound Libraries for Anthelmintic Activity and Toxicity Leads to the Discovery of Two Flavonoid Compounds” (International Journal of Molecular Sciences, 2025).
“And” between values parts separate entries of the source, which are not always exact repeats. Identical values can stand only once. Like-named read-outs stand apart in the source and are kept apart here.

Test system: C. elegans
[1] = Table S2, C. elegans SS assay, 110 μM, 0 h, averages of 4 data points
[2] = Table S2, C. elegans SS assay, 110 μM, 24 h, averages of 4 data points

Row | Structure (SMILES) | Percentage of motility inhibition 0 h [1] | Percentage of motility inhibition 24 h [2] | Percentage of motility inhibition 0 h (110 µM) | Percentage of motility inhibition 24 h (110 µM)
1 | C/C(=C\C=C\[C@@]1(C)OC(=O)[C@]23CC=C(C(=O)O)CC[C@]2(O)[C@H]1CC3)C(=O)O [Demethoxydeacetoxypseudolaric acid B] | 0% | 0% | – | –
2 | COc1ccc2cc3[n+](cc2c1OC)CCc1cc(O)c(O)cc1-3.[Cl-] [Demethyleneberberine (chloride)] | 0% | 13% | – | –
3 | C[C@@]1(C(=O)O)CC[C@]2(C)CC[C@]3(C)C4=CC(=O)c5c(cc(O)c(O)c5C=O)[C@]4(C)CC[C@@]3(C)[C@@H]2C1 [Demethylzeylasteral] | 0% | 36% | – | –
4 | CC(C)[C@@H]1[C@H]2OC(=O)[C@@H]1[C@@H]1CC[C@@H]3CN(C)[C@H]2[C@@]31C [Dendrobine] | 0% | 3% | – | –
5 | C[C@H](CCC(=O)[O-])[C@H]1CC[C@H]2[C@@H]3CC[C@@H]4C[C@H](O)CC[C@]4(C)[C@H]3C[C@H](O)[C@]12C.[Na+] [Deoxycholic acid sodium salt] | 0% | 26% | – | –
6 | C=C(C)C(=O)O[C@H]1CC2=C[C@@H](C/C(C)=C/[C@H]3OC(=O)C(=C)[C@H]13)OC2=O [Deoxyelephantopin] | 0% | 9% | – | –
7 | CC1(C)OC2CC(=O)OCC23C1CC(=O)C1(C)C2=CC(=O)OC(c4ccoc4)C2(C)CCC13 (centres unmarked) [Deoxylimonin] | 9% | 50% | – | –
8 | CC1(C)[C@@H](O[C@H]2O[C@H](C(=O)O)[C@@H](O)[C@H](O)[C@H]2O[C@@H]2O[C@H](C(=O)O)[C@@H](O)[C@H](O)[C@H]2O)CC[C@]2(C)[C@H]3C(=O)C=C4[C@@H]5C[C@@](C)(C(=O)O)CC[C@]5(C)CC[C@@]4(C)[C@]3(C)CC[C@@H]12.N.N [Diammonium Glycyrrhizinate] | – | 4% and 11% | – | –
9 | COc1cc(-c2coc3cc4c(c(O)c3c2=O)OCO4)cc(O)c1OC [Dichotomitin] | 34% | 22% | – | –
10 | COc1ccc([C@@H]2CC(=O)c3c(O)cc(O[C@@H]4O[C@H](CO[C@@H]5O[C@@H](C)[C@H](O)[C@@H](O)[C@H]5O)[C@@H](O)[C@H](O)[C@H]4O)cc3O2)cc1 [Didymin] | 1% | 6% | – | –
11 | CCN(CC)C(=O)N1CCN(C)CC1.O=C(O)CC(O)(CC(=O)O)C(=O)O [Diethylcarbamazine (citrate)] | 13% | 17% | – | –
12 | CC1=C[C@H]2[C@@H](CC1)[C@H](C)CC[C@H]2[C@@H](C)C(=O)O [Dihydroartemisinic acid] | 0% | 15% | – | –
13 | CC(=O)OC(C)(C)CCC(=O)[C@](C)(O)[C@H]1[C@H](O)C[C@@]2(C)[C@@H]3CC=C4[C@@H](C[C@H](O)C(=O)C4(C)C)[C@]3(C)C(=O)C[C@]12C [Dihydrocucurbitacin B] | 0% | 11% | – | –
14 | CCCCCCCCCCCCCc1cc(=O)c2ccccc2n1C [Dihydroevocarpine] | 3% | 0% | – | –
15 | O[C@H]1[C@H]2c3cc4c(cc3CN3CC[C@H](C[C@@H]1O)[C@H]23)OCO4 [Dihydrolycorine] | 0% | 0% | – | –
16 | CN[C@@H]1[C@H](O[C@H]2[C@H](O[C@H]3[C@H](O)[C@@H](O)[C@H](NC(=N)N)[C@@H](O)[C@@H]3NC(=N)N)O[C@@H](C)[C@]2(O)CO)O[C@@H](CO)[C@H](O)[C@H]1O.CN[C@@H]1[C@H](O[C@H]2[C@H](O[C@H]3[C@H](O)[C@@H](O)[C@H](NC(=N)N)[C@@H](O)[C@@H]3NC(=N)N)O[C@@H](C)[C@]2(O)CO)O[C@@H](CO)[C@H](O)[C@H]1O.O=S(=O)(O)O.O=S(=O)(O)O.O=S(=O)(O)O [Dihydrostreptomycin (sulfate)] | 0% | 0% | – | –
17 | Br.CO[C@H]1CC=C2CCN3CCC4=C(CC(=O)OC4)[C@]23C1 [Dihydro‐β‐er ythroidine (hydrobromide)] | 7% | 6% | – | –
18 | COc1ccc(-c2cc(=O)c3c(O)cc(O[C@@H]4O[C@H](C(=O)O)[C@@H](O)[C@H](O)[C@H]4O)cc3o2)cc1O [DiosMetin 7‐O‐β‐D‐Glucuronide] | 4% | 21% | – | –
19 | C[C@@]12C[C@H](c3ccoc3)O[C@@]13C[C@H](OC3=O)[C@H]1[C@H]2C[C@@H]2C[C@H]1C(=O)O2 [Diosbulbin B] | 0% | 31% | – | –

Row | Structure (SMILES) | Percentage of motility inhibition 0 h [1] | Percentage of motility inhibition 24 h [2] | Percentage of motility inhibition 0 h (110 µM) | Percentage of motility inhibition 24 h (110 µM)
20 | COc1ccc(-c2cc(=O)c3c(O)cc(O[C@@H]4O[C@H](CO)[C@@H](O)[C@H](O)[C@H]4O)cc3o2)cc1O [Diosmetin‐7‐O‐β‐D‐glucopyranoside] | 53% | 10% | – | –
21 | COc1ccc(-c2cc(=O)c3c(O)cc(O[C@@H]4O[C@H](CO[C@@H]5O[C@@H](C)[C@H](O)[C@@H](O)[C@H]5O)[C@@H](O)[C@H](O)[C@H]4O)cc3o2)cc1O [Diosmin] | – | 10% and 4% | – | –
22 | Cn1c(=O)c2c(ncn2CC(O)CO)n(C)c1=O (centres unmarked) [Diphylline] | 66% | 31% | – | –
23 | CC1(C)[C@@H](O[C@H]2O[C@H](C(=O)[O-])[C@@H](O)[C@H](O)[C@H]2O[C@@H]2O[C@H](C(=O)[O-])[C@@H](O)[C@H](O)[C@H]2O)CC[C@]2(C)[C@H]3C(=O)C=C4[C@@H]5C[C@@](C)(C(=O)O)CC[C@]5(C)CC[C@@]4(C)[C@]3(C)CC[C@@H]12.[K+].[K+] [Dipotassium glycyrrhizinate] | 17% and 15% | 3% | – | –
24 | C[C@@H]1O[C@@H](O[C@H]2[C@H](O[C@H]3CC[C@@]4(C)[C@@H](CC[C@]5(C)[C@@H]4CC=C4[C@@H]6CC(C)(C)CC[C@]6(C(=O)O[C@@H]6O[C@H](CO[C@@H]7O[C@H](CO)[C@@H](O)[C@H](O)[C@H]7O)[C@@H](O)[C@H](O)[C@H]6O)CC[C@]45C)[C@]3(C)CO)OC[C@H](O)[C@@H]2O)[C@H](O)[C@H](O)[C@H]1O [Dipsacoside B] | – | – | 7% | 5%
25 | O=C([O-])CCC(=O)[O-].[Na+].[Na+] [Disodium succinate] | 19% | 1% | – | –
26 | C[C@@H]1CCO[C@H]2Cn3cc(C(=O)NCc4ccc(F)cc4F)c(=O)c([O-])c3C(=O)N12.[Na+] [Dolutegravir (sodium)] | 0% | 17% | – | –
27 | CO[C@H]1C[C@H](O[C@H]2[C@H](C)O[C@@H](O[C@@H]3/C(C)=C/C[C@@H]4C[C@@H](C[C@]5(C=C[C@H](C)[C@@H](C6CCCCC6)O5)O4)OC(=O)[C@@H]4C=C(C)[C@@H](O)[C@H]5OC/C(=C\C=C\[C@@H]3C)[C@]54O)C[C@@H]2OC)O[C@@H](C)[C@@H]1O [Doramectin] | 66% | 49% | – | –
28 | C[C@@H](O)[C@H]1C(=O)N2C(C(=O)O)=C(S[C@@H]3CN[C@H](CNS(N)(=O)=O)C3)[C@H](C)[C@H]12.O [Doripenem (monohydrate)] | 15% | 7% | – | –
29 | COc1cccc2c1C(=O)c1c(O)c3c(c(O)c1C2=O)C[C@@](O)(C(=O)CO)C[C@@H]3O[C@H]1C[C@H](N)[C@H](O)[C@H](C)O1.Cl [Doxorubicin (hydrochloride)] | 13% | 4% | – | –
30 | C[C@@H]1NC(=O)N[C@@H]1CCCCCC(=O)O [D‐Desthiobiotin] | 18% | 4% | – | –
31 | COc1cc2c(cc1OC)[C@H]1Cc3ccc(OC)c(OC)c3CN1CC2 [D‐Tetrahydropalmatine] | 0% | 0% | – | –
32 | C[C@H]1CC[C@H]2[C@H](C)[C@H]3CC[C@@H]4[C@@H](C[C@H]5[C@H]4CC(=O)[C@H]4C[C@@H](O)CC[C@@]45C)[C@@H]3CN2C1 [Ebeiedinone] | 0% | 4% | – | –
33 | CC1(C)CC[C@]2(C(=O)O[C@@H]3O[C@H](CO)[C@@H](O)[C@H](O)[C@H]3O)[C@H](O)C[C@]3(C)C(=CC[C@@H]4[C@@]5(C)CC[C@H](O)C(C)(C)[C@@H]5CC[C@]43C)[C@@H]2C1 [Echinocystic acid 28-O-β-D-glucoside] | 36% | 41% | – | –
34 | CC1(C)CC[C@]2(C(=O)O[C@@H]3O[C@H](CO)[C@@H](O)[C@H](O)[C@H]3O)[C@H](O)C[C@]3(C)C(=CC[C@@H]4[C@@]5(C)CC[C@H](O[C@@H]6O[C@H](CO)[C@@H](O)[C@H](O)[C@H]6O)C(C)(C)[C@@H]5CC[C@]43C)[C@@H]2C1 [Eclalbasaponin I] | 35% | 35% | – | –
35 | Clc1ccc(COC(Cn2ccnc2)c2ccc(Cl)cc2Cl)cc1.O=[N+]([O-])O (centres unmarked) [Econazole (nitrate)] | 35% | 13% | – | –
36 | C[C@H]1CC[C@@H]2N(C1)C[C@H]1[C@@H]3C[C@H]4[C@@H](CC(=O)[C@H]5C[C@@H](O[C@@H]6O[C@H](CO)[C@@H](O)[C@H](O)[C@H]6O)CC[C@@]54C)[C@@H]3CC[C@@H]1[C@]2(C)O [Edpetiline] | 11% | 56% | – | –
37 | Cc1c2ccncc2c(C)c2c1[nH]c1ccccc12.Cl [Ellipticine (hydrochloride)] | 9% | 11% | – | –
38 | CC[C@H]1CN2CCc3cc(OC)c(OC)cc3[C@@H]2C[C@@H]1C[C@H]1NCCc2cc(OC)c(OC)cc21.Cl.Cl.O [Emetine (dihydrochloride hydrate)] | 52% | 7% | – | –
